From patent US10029022B2, “Nuclear medicine diagnostic imaging agent” (Kyoto University, priority 2015, dated 2018)
Values belong to the molecule of their own block, whether it stands above or below them.

Assays:
[1] = molecular target: T1, EGFR (EGFR Kinase Enzyme System, WT) (Homo sapiens, UniProt P00533); experiment: EGFR Tyrosine Kinase Inhibiting Activity Measurement 1 (ADP-Glo), WT; type: biochemical; conditions: for IC50: 1 h incubation with ATP/Poly(Glu, Tyr), >10: <50% enzyme inhibition at 10 μM
T1 construct: purchased Promega V3831
Description: (§1) The measurement was carried out according to the Promega protocol applications guide. That is, a buffer solution (40 mM Tris-HCl, pH 7.5, 20 mM MgCl2, 50 μM DTT and 0.1 mg/mL BSA) was used as a dilute solution. The concentration of each compound started at 100 μM (the final concentration, including 1% DMSO) with 5-fold dilutions with the buffer solution. Thus, ten concentrations of each compound were prepared. The initial concentration of PD158780 alone was set at 10 μM (the final concentration, including 1% DMSO) but it was prepared in the same manner as the compound group. Then, 2 μL of each concentration of each compound thus obtained was added to each well of a 384-well plate. Furthermore, 4 μL (20 ng) of an EGFR Kinase Buffer that came with each EGFR Kinase Enzyme System was added to each well, which then was incubated at room temperature for ten minutes. Subsequently, 4 μL of mixed solution of ATP (10 μM) and Poly(Glu, Tyr) (2 μg) substrate was added to each well, which then was incubated at room temperature for one hour. Then, 10 μL of ADP-Glo™ Reagent (ADP-Glo™ Kinase Assay, Promega) was added to each well, which then was reacted at room temperature for 40 minutes. Furthermore, 20 μL of Kinase Detection Reagent (ADP-Glo™ Kinase Assay, Promega) was added to each well, which then was reacted at room temperature for one hour. […] From the data thus obtained, dose-response curves and IC50 were calculated using GraphPad Prism 5 (GraphPad Software, Inc.).

EGFR (L858R) = molecular target: T2, EGFR (L858R) (Homo sapiens, UniProt P00533, L858R); experiment: EGFR Tyrosine Kinase Inhibiting Activity Measurement 1 (ADP-Glo), L858R; type: biochemical; conditions: 1 h incubation with ATP/Poly(Glu, Tyr); >10: <50% enzyme inhibition at 10 μM
T2 construct: purchased Promega V5322
Description: as §1

EGFR (T790M) = molecular target: T3, EGFR (T790M) (Homo sapiens, UniProt P00533, T790M); experiment: EGFR Tyrosine Kinase Inhibiting Activity Measurement 1 (ADP-Glo), T790M; type: biochemical; conditions: 1 h incubation with ATP/Poly(Glu, Tyr); >10: <50% enzyme inhibition at 10 μM
T3 construct: purchased Promega V4506
Description: as §1

EGFR (T790M, L858R) = molecular target: T4, EGFR (T790M, L858R) (Homo sapiens, UniProt P00533, L858R/T790M); experiment: EGFR Tyrosine Kinase Inhibiting Activity Measurement 1 (ADP-Glo), DM; type: biochemical; conditions: 1 h incubation with ATP/Poly(Glu, Tyr); >10: <50% enzyme inhibition at 10 μM
T4 construct: purchased Promega V5324
Description: as §1

L858R-mutated EGFR = molecular target: T5, L858R-mutated EGFR (Homo sapiens, UniProt P00533, L858R); experiment: EGFR Tyrosine Kinase Inhibiting Activity Measurement 2, L858R; type: biochemical
T5 construct: purchased Promega V5322
Description: as §1, with “minutes.” for “minutes. Furthermore, 20 μL of Kinase Detection Reagent (ADP-Glo™ Kinase Assay, Promega) was added to each well, which then was reacted at room temperature for one hour.”

L858R/T790M-mutated EGFR = molecular target: T6, L858R/T790M-mutated EGFR (Homo sapiens, UniProt P00533, L858R/T790M); experiment: EGFR Tyrosine Kinase Inhibiting Activity Measurement 2, L858R/T790M; type: biochemical
T6 construct: purchased Promega V5324
Description: as §1, with “minutes.” for “minutes. Furthermore, 20 μL of Kinase Detection Reagent (ADP-Glo™ Kinase Assay, Promega) was added to each well, which then was reacted at room temperature for one hour.”

[2] = test system: H3255 cells (L858R mutation); experiment: Cellular Uptake Inhibition Experiment 1 (gefitinib), H3255; type: cell-based, human; conditions: gefitinib 0, 0.5, 1, 2.5 μM, 2 h incubation; FIG. 1
Description: (§2) Two types of EGFR mutation-positive human non-small cell lung cancer cells H3255 (L858R mutation) and H1975 (L858R/T790M mutation) were cultured in a DMEM/Ham's F-12 medium (Nacalai Tesque) containing glutamine, antibiotics (penicillin-streptomycin), and 20% fetal bovine serum.
(§3) The binding specificity of H4 to each mutated EGFR-TK was evaluated by a cellular uptake inhibition experiment using H3255 cells, which are L858R mutant cells, and H1975 cells, which are L858R/T790M mutant cells. H3255 and H1975 cells (4×10^5 cells/well) were cultured in a 12-well plate for 48 hours. After the medium was removed, each well was washed with PBS(−) once. Each fetal bovine serum-free DMEM/Ham's F-12 medium with [^18F]H4 (0.15 MBq/mL) and gefitinib (0, 0.5, 1, and 2.5 μM) added thereto was added to each well, which then was incubated in a CO2 incubator for two hours. Each well was washed with 0.1% Tween 80/1% DMSO/PBS(−) three times, and the cells were dissolved with 0.2 N NaOH. The radioactivity of each solution was measured with the gamma counter, and the protein concentration was determined using a BCA Protein Assay Kit (Pierce, Rockford, Ill.) and then the measurement results were analyzed.

[3] = test system: H1975 cells (L858R/T790M mutation); experiment: Cellular Uptake Inhibition Experiment 1 (gefitinib), H1975; type: cell-based, human; conditions: regardless of gefitinib (0, 0.5, 1, 2.5 μM), 2 h incubation; FIG. 1
Description: as §2, §3

[4] = test system: H3255 cells (L858R mutation); experiment: Cellular Uptake Inhibition Experiment 2 (AZD9291), H3255; type: cell-based, human; conditions: AZD9291 0, 1, 5 μM pre-incubated 30 min, then 2 h; FIG. 2
Description: as §2
(§4) H3255 and H1975 cells (4×10^5 cells/well) were cultured in a 12-well plate for 24 hours. After the medium was removed, each well was washed with PBS(−) once. […] [^18F]H4 (148 kBq/well) was added to each well, which then was incubated in the 5% CO2 incubator at 37° C. for two hours. Each well was washed with 0.1% Tween 80/1% DMSO/PBS(−) three times, and the cells were dissolved with 0.2 N NaOH. The radioactivity of each solution was measured with the gamma counter and the protein concentration was determined using the BCA Protein Assay Kit (Pierce, Rockford, Ill.) and then the measurement results were analyzed.

[5] = test system: H1975 cells (L858R/T790M mutation); experiment: Cellular Uptake Inhibition Experiment 2 (AZD9291), H1975; type: cell-based, human; conditions: regardless of AZD9291 (0, 1, 5 μM), 2 h incubation; FIG. 2
Description: as §2, §4

[6] = test system: H3255 tumor-bearing mouse; experiment: Biodistribution Experiment in tumor-bearing mice; type: in vivo
Description: 1×10^7 cells/mouse of H3255 cells suspended in BD Matrigel™ Basement Membrane Matrix was implanted to the right shoulder of a 5-week-old male BALB/c nu/nu mouse (Shimizu Laboratory Supplies), and thereby a tumor-bearing mouse was prepared. They were used for experiments, with the tumor being 1 cm or smaller in diameter.
[^18F]H4 was dissolved in saline containing 0.1% Tween 80 so as to be 6 μCi/100 μL and 100 μL thereof was administered to each tumor-bearing mouse through a tail vein. The mice were decapitated/slaughtered at predetermined time points (30 minutes, 1 hour, 2 hours, and 3 hours after administration). The blood was collected and tissues were removed and then the mass and the accumulated radioactivity were measured. The amount of accumulation (% dose/g) was calculated from the radioactivity per unit weight and the accumulation in the tissues was evaluated. FIG. 3 is a graph showing an example of variations with time of the accumulation of [^18F]H4 in each organ.

[7] = test system: H3255 tumor (L858R mutation); experiment: Biodistribution Experiment (Blocking Experiment), H3255; type: in vivo, mouse; conditions: AZD9291 (17 μg) administered simultaneously, 180 min after administration; FIG. 4
Description: At 180 minutes after the administration, they were slaughtered and H3255 tumor tissues were removed. The mass and the accumulated radioactivity were measured, and the amount of accumulation (% dose/g) was calculated from the radioactivity per unit weight. […]

[8] = test system: H1975 tumor (L858R/T790M mutation); experiment: Biodistribution Experiment (Blocking Experiment), H1975; type: in vivo, mouse; conditions: with or without AZD9291 (17 μg), 180 min after administration; FIG. 4
Description: At 180 minutes after the administration, they were slaughtered and H3255 tumor tissues were removed. The mass and the accumulated radioactivity were measured, and the amount of accumulation (% dose/g) was calculated from the radioactivity per unit weight. This was carried out in the same manner as above except that AZD9291 was not administered.
Furthermore, this experiment was carried out in the same manner as above except that H1975 tumor-bearing mice were used.

[9] = test system: H3255 tumor-bearing mouse; experiment: PET/CT Imaging 1; type: in vivo; conditions: 180 to 200 min after tail vein administration; FIG. 5
Description: [^18F]H4 (9.8 MBq/150 μL) was administered to a H3255 tumor-bearing mouse through a tail vein. He was anesthetized by inhalation of isoflurane (2.0%) from 175 minutes after the administration and then was imaged for 20 minutes from 180 minutes after the administration using a PET/CT device (FX-3300). Thereafter, CT imaging (60 kV, 320 μA) was carried out. The image reconstruction was carried out using 3D-OSEM.
Animal: Balb/c nu/nu mouse, 10 w, male, 22.2 g
Injection dose: 264 μCi/150 μL
(§5) Image acquisition: 180 to 200 min after administration
(§6) Condition of CT: 60 kV, 320 μA

[10] = test system: H1975 tumor-bearing mouse; experiment: PET/CT Imaging 2; type: in vivo; conditions: 180 to 200 min after administration; FIG. 6
Description: PET/CT Imaging 2 was carried out in the same manner as in PET/CT Imaging 1 except that a H1975 tumor-bearing mouse was used and the following imaging conditions were employed.
Animal: Balb/c nu/nu mouse, 9 w, male, 20.9 g
Injection dose: 486 μCi/150 μL
as §5, §6

[11] = 30 min after tail vein administration, average of 5 mice
[12] = 60 min after tail vein administration, average of 5 mice
[13] = 120 min after tail vein administration, average of 5 mice
[14] = 180 min after tail vein administration, average of 5 mice
[15] = from 30 min to 180 min after administration

T1 sequence (P00533 25-1210): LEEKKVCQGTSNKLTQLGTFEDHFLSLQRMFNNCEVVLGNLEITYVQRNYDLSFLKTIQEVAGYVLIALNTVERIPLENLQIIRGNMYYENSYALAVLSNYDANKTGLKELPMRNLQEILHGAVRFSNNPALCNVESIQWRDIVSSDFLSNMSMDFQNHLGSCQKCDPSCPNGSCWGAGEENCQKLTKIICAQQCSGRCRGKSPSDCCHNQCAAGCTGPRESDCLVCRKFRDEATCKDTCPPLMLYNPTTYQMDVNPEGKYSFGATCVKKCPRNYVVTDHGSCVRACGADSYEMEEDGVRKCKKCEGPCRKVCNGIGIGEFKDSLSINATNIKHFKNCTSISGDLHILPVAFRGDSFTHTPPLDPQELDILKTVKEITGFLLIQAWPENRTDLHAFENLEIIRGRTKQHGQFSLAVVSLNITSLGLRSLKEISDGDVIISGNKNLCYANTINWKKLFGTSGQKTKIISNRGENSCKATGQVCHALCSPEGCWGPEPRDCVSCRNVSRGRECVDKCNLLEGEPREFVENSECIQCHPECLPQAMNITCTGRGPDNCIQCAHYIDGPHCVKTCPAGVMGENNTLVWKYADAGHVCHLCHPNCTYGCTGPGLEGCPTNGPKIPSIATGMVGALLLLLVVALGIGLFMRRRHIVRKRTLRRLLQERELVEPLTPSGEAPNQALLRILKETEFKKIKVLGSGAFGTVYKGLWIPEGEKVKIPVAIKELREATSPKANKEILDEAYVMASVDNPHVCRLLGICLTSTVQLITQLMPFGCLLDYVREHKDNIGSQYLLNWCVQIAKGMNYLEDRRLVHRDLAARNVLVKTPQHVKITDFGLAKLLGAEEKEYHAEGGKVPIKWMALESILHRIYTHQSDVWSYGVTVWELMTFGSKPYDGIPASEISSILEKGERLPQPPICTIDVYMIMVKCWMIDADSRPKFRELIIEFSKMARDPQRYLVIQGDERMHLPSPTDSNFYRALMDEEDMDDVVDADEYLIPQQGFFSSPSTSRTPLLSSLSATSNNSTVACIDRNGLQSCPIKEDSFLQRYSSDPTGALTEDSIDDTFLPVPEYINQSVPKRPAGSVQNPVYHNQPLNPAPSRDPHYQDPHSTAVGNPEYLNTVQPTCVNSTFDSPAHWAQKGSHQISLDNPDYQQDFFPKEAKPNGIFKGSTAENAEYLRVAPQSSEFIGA
T2 sequence (P00533 25-1210 L858R): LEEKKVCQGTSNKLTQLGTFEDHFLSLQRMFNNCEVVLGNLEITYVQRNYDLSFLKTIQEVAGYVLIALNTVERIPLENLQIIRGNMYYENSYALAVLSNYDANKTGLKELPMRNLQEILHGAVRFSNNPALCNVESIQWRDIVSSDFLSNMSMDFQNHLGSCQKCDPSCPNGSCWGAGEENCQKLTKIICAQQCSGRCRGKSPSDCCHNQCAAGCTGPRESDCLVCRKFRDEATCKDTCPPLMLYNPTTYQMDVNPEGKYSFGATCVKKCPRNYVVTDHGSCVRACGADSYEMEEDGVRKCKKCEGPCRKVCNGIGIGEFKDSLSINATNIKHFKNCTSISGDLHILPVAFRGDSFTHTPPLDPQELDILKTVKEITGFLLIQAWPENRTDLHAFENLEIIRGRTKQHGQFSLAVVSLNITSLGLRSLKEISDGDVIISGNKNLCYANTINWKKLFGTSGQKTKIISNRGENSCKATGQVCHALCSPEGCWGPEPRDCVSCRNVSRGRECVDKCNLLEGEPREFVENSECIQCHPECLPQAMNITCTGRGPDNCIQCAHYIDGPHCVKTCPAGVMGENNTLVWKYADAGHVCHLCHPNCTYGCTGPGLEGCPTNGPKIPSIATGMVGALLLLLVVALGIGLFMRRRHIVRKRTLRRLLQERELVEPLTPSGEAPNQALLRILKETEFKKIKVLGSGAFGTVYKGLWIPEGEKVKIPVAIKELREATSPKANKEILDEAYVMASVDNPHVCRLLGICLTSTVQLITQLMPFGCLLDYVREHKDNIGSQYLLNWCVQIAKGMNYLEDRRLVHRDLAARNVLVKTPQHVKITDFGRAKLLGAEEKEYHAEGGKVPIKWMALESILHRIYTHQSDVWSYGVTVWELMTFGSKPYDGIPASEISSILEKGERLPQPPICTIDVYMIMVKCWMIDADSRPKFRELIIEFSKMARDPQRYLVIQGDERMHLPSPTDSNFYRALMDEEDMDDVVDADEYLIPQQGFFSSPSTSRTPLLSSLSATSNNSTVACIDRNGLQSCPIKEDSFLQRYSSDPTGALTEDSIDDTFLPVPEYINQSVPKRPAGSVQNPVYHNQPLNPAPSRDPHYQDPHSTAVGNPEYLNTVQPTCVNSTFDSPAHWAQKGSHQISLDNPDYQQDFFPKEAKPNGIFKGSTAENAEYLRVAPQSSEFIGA
T3 sequence (P00533 25-1210 T790M): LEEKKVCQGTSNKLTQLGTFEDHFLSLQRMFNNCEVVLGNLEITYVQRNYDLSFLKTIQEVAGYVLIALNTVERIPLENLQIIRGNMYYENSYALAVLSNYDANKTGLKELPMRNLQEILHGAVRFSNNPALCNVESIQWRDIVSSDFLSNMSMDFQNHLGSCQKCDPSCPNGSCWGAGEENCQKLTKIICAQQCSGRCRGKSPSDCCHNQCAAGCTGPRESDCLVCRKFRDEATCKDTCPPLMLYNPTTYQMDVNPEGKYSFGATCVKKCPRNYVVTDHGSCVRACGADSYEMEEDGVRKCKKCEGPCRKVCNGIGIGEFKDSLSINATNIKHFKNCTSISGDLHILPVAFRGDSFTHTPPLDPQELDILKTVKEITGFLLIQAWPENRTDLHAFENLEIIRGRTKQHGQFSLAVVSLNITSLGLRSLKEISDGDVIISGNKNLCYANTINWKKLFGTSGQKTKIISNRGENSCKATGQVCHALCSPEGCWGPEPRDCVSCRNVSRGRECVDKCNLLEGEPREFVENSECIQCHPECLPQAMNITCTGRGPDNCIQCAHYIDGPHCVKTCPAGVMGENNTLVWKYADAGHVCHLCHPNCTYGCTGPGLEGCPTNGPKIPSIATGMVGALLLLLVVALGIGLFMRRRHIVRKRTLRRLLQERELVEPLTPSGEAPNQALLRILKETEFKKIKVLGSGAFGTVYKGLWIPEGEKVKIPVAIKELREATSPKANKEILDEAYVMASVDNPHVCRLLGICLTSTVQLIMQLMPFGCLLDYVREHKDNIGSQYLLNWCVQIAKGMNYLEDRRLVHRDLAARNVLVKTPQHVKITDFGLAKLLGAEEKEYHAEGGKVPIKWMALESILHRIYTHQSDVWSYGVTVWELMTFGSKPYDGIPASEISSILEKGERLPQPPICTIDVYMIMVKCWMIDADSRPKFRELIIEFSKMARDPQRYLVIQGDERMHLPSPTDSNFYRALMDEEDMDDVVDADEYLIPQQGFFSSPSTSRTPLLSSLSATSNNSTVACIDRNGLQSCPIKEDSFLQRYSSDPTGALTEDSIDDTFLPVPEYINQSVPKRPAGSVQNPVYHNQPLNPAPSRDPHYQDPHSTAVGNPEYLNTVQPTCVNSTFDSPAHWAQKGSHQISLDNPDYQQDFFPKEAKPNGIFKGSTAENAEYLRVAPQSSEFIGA
T4 sequence (P00533 25-1210 T790M/L858R): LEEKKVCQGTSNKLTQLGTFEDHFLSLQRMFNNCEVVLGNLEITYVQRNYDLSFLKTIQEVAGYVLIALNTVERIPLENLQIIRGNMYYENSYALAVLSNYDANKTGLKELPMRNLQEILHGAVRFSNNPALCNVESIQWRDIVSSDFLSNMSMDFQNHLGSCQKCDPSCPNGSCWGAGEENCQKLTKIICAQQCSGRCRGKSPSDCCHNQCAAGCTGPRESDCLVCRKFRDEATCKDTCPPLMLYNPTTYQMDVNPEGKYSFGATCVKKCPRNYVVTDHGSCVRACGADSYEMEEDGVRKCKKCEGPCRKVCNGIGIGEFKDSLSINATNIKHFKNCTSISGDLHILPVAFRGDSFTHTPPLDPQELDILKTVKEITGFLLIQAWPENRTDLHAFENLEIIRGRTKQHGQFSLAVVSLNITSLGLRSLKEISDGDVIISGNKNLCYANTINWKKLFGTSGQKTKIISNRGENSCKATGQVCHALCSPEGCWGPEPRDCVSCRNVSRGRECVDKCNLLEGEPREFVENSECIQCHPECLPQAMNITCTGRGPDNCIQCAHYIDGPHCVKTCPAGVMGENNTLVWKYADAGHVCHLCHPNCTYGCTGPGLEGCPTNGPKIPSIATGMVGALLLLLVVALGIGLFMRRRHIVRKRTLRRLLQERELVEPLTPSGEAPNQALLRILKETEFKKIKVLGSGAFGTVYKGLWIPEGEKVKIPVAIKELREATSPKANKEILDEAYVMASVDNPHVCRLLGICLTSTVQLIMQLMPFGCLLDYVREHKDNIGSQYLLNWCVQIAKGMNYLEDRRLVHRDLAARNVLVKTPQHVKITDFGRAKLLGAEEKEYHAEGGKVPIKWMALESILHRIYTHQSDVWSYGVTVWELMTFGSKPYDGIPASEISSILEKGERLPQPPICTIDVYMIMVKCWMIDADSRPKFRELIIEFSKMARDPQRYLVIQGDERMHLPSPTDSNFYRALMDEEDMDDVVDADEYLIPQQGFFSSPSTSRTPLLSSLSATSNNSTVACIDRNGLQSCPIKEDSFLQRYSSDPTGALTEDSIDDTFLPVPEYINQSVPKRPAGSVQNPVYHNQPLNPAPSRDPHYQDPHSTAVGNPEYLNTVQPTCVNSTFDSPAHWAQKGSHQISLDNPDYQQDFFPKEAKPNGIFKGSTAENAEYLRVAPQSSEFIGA

SMILES: Fc1ccc(Nc2ncnc3cnc(NCCN4CCOCC4)cc23)cn1 [Compound H3, N^4-(6-Fluoropyridin-3-yl)-N^6-(2-morpholinoethyl)pyrido[3,4-d]pyrimidin-4,6-diamine]
- IC50 [1]: 3750 nM
- IC50 (EGFR (L858R)): 686 nM
- IC50 (EGFR (T790M)): > 10000 nM
- IC50 (EGFR (T790M, L858R)): > 10000 nM

SMILES: O=C(/C=C/CN1CCN(CCF)CC1)Nc1cc2c(Nc3cccc(Br)c3)ncnc2cn1 [Compound H4, (E)-N-(4-((3-Bromophenyl)amino)pyrido[3,4-d]pyrimidin-6-yl)-4-(4-(2-fluoroethyl)piperazin-1-yl)but-2-enamide]
- IC50 [1]: 49 nM
- IC50 (EGFR (L858R)): 58 nM
- IC50 (EGFR (T790M)): 409 nM
- IC50 (EGFR (T790M, L858R)): 406 nM
- IC50 (L858R-mutated EGFR; 2 h incubation after ATP and Poly(Glu, Tyr) substrate were added, read-out: EGFR Kinase Inhibition: IC50, L858R): 15.6 ± 0.8 nM
- binding affinity to the L858R-mutated EGFR (in words) (L858R-mutated EGFR; comment on Table 2): relatively high binding affinity
- IC50 (L858R/T790M-mutated EGFR; 2 h incubation after ATP and Poly(Glu, Tyr) substrate were added, read-out: EGFR Kinase Inhibition: IC50, L858R/T790M): 326 ± 64 nM
- binding affinity to the L858R/T790M-mutated EGFR (in words) (L858R/T790M-mutated EGFR; comment on Table 2): lower than AZD9291 and was higher than Erlotinib

SMILES: O=C(/C=C/CN1CCN(CC[18F])CC1)Nc1cc2c(Nc3cccc(Br)c3)ncnc2cn1 [[^18F]H4, (E)-N-(4-((3-Bromophenyl)amino)pyrido[3,4-d]pyrimidin-6-yl)-4-(4-(2-[^18F]fluoroethyl)piperazin-1-yl)but-2-enamide]
- uptake of [^18F]H4 into the H3255 cells [2]: inhibited by gefitinib
- uptake of [^18F]H4 into the H1975 cells [3]: approximately 50 % ID/mg protein
- uptake of [^18F]H4 into the H3255 cells [4]: inhibited by AZD9291
- uptake of [^18F]H4 into the H1975 cells [5]: approximately 50 % ID/mg protein
- Tumor/Blood Ratio [6, 11]: 1.99
- Tumor/Muscle Ratio [6, 11]: 3.47
- Tumor/Blood Ratio [6, 12]: 3.24
- Tumor/Muscle Ratio [6, 12]: 8.89
- Tumor/Blood Ratio [6, 13]: 3.28
- Tumor/Muscle Ratio [6, 13]: 5.75
- Tumor/Blood Ratio [6, 14]: 3.03
- Tumor/Muscle Ratio [6, 14]: 9.29
- Tumor/Blood Ratio [6, 15]: around 3
- Tumor/Muscle Ratio [6, 15]: exceeded 5
- metabolism and excretion (transition from the liver to the intestine) ([6]; tumor-bearing mice, 30 to 180 min after administration, FIG. 3): quickly metabolized and excreted
- reduction in accumulation of [^18F]H4 in the H3255 tumor [7]: 54%
- change of accumulation of [^18F]H4 in the H1975 tumor [8]: hardly changed
- accumulation in PET/CT image, H3255 implant [9]: accumulated specifically in the portion where H3255 was implanted
- accumulation in PET/CT image, H1975 implant [10]: no specific accumulation

Second part, the molecule after the results:

- IC50 [1]: 17 nM
- IC50 (EGFR (L858R)): 15 nM
- IC50 (EGFR (T790M)): 4110 nM
- IC50 (EGFR (T790M, L858R)): 4020 nM
SMILES: FCCNc1cc2c(Nc3cccc(Br)c3)ncnc2cn1 [Compound H1, 4-[(3-Bromophenyl)amino]-6-(2-fluoroethylamino)pyrido[3,4-d]pyrimidine]

- IC50 [1]: 7210 nM
- binding affinity to the wild-type EGFR (in words) ([1]; comment on Table 1): low binding affinity
- IC50 (EGFR (L858R)): 653 nM
- IC50 (EGFR (T790M)): > 10000 nM
- IC50 (EGFR (T790M, L858R)): > 10000 nM
SMILES: FCCOc1cccc(Nc2ncnc3cnc(NCCN4CCOCC4)cc23)c1 [Compound H2, N^4-(3-(2-Fluoroethoxy)phenyl)-N^6-(2-morpholinoethyl)pyrido[3,4-d]pyrimidine-4,6-diamine]

- IC50 [1]: 6 nM
SMILES: CNc1cc2c(Nc3cccc(Br)c3)ncnc2cn1 [PD158780, reference compound]
